Results taken from patent US9463337B2, “Multifunctional hair color protector” (GALAXY SURFACTANTS LTD., priority 2013, dated 2016).

Legend:
[1] = Substantivity (deposition) on hair tresses; conditions: 0.5% aqueous solution/dispersion on hair tresses
[2] = Surface tension of water (surface activity); format: physicochemical
[3] = tested on: Candida albicans ATCC 10231; test: Challenge test on aqueous paste (30%); format: cell-based; conditions: 30% aqueous paste, 25° C.
Description: (§1) Following strains of Gram positive, Gram negative bacteria and yeast and mold were used for the challenge test. Staphylococcus aureus ATCC 653, Escherichia coli ATCC 8739, Pseudomonas aeruginosa ATCC 15442, Candida albicans ATCC 10231, and Aspergillus niger ATCC 16404.
(§2) The test is conducted in the six sterile containers each containing a fix equal amount of test sample. Each container was inoculated with a 1% of standardized Inoculum of the microorganism.
(§3) The initial concentration of the viable microorganism in each test preparation is estimated based on the concentration of microorganism in each of the standardized Inoculum as determined by the plate count method.
(§4) Each container is incubated at 25° C. The aliquot of sample of each container is removed at appropriate intervals of time 0 day, 24 hrs, 48 hrs, and 7 days, 14 days, 21 days and 28 days.

[4] = tested on: Pseudomonas aeruginosa ATCC 15442; test: Challenge test on aqueous paste (30%); format: cell-based; conditions: 30% aqueous paste, 25° C.
Description: as §1, §2, §3, §4

[5] = tested on: Staphylococcus aureus ATCC 653; test: Challenge test on aqueous paste (30%); format: cell-based; conditions: 30% aqueous paste, 25° C.
Description: as §1, §2, §3, §4

[6] = tested on: Aspergillus niger ATCC 16404; test: Challenge test on aqueous paste (30%); format: cell-based; conditions: 30% aqueous paste, 25° C.
Description: as §1, §2, §3, §4

[7] = tested on: Escherichia coli ATCC 8739; test: Challenge test on aqueous paste (30%); format: cell-based; conditions: 30% aqueous paste, 25° C.
Description: as §1, §2, §3, §4

[8] = Combing force on Diastron tensile tester after shampoo application; conditions: shampoo containing MCBDC (2%), one application, as compared to placebo shampoo
[9] = Sensory evaluation of shampooed hair; conditions: shampoo containing 2.0% MCBDC vs base shampoo, panel of 10
Description: Sensory Evaluation of shampooed hair: The subjective evaluation was conducted by the panel of 10. The evaluator scored tresses of the scale of 1 to 2.

[10] = Zeta potential, Malvern Zetasizer Nano; format: physicochemical; conditions: 1% dispersion
Description: Also the high zeta potential ensures the stability of colloidal dispersions.

UV absorption of MCBDC = format: physicochemical
Description: MCDBC is obtained as practically odorless white paste and has solids content of 30% (Example 2). The product as such has absorbance (E 1%, 1 cm) of 130 at λ max of 306 nm in ethanol.
Its molar extinction coefficient c is 28,000 when measured at same λ max
The white pasty mass that is practically odorless had E1% 1 cm of 130 at λ max 306 nm in EtOH.

[11] = Hair protection against UV induced damage through rinse-off conditioner (combing force); conditions: rinse-off conditioner with 2% MCBDC vs placebo conditioner
Description: Double bleached European hair were shampooed with the placebo shampoo of Example 4 and conditioned according to the following protocol. The details of UV chamber and exposure conditions are given below.
Placebo shampoo of Example 4 was applied for 1 minute to European hair and rinsed the tresses with water for one minute 25° C. with controlled finger movements. This was followed by conditioner application for one minute application time, one minute contact time and one and half minute for rinsing off with warm water (40° C.).
Treated hair tresses were exposed to UV radiation with the help of UV lamp for 48 hours. UV exposed hair tresses were then subjected to combing force evaluation on Diastron tensile tester.
Two tresses per treatment were used. The treated tresses were irradiated with UV chamber which is equipped with two tubes emitting UV light in short UV (254 nm) and long UV 315-400 nm) regions. Sankyo Denki G8TS tube with UV output of 2.5 W was used as short UV light source while Sankyo Denki F8T5BLB backlight—blue tube with UV output of 1.4 W was used as long UV light source. Washing and UV exposure was given in the following sequence for 50 h. UV exposed tresses were washed with isopropanol to remove the quaternary followed by combing force measurement on Diastron Tensile Tester (MTT 175).

[12] = tested on: P. aeruginosa, E. coli, S. aureus, Candida albicans and A. niger; test: CTFA challenge test, overall outcome; format: cell-based; conditions: 30% aqueous paste
Description: It was challenge tested with both Gram negative, Gram positive bacteria and yeast and mold by the standard challenge test protocol recommended by CTFA. The test organisms used were P. aeruginosa, E. coli, S. aureus, Candida albicans and A. niger.
as §1, §2, §3, §4

[13] = Hair color protection (anti-fade) through rinse-off conditioner, Hunter L* a* b*; conditions: rinse-off conditioner with MCBDC vs placebo, ten wash/UV cycles, five hours total UV exposure
Description: They were dyed using L'Oreal's Burgundy color as per the protocol described by the dye manufacturer.
Hair coloring (hair dyeing) process is performed as recommended by the marketed product. The color and the developer were mixed in ratio of 1:1 and shampooed hair tresses were treated with the same. The color and developer mixture was applied uniformly to the hair tresses and covered with the aluminum foil for twenty minutes. After this the hair tresses were washed with warm water. […] The ‘Placebo’ and ‘Treated’ hair tresses were exposed to UV radiation, total exposure of five hours through total to washing cycles comprising, shampooing, conditioning, rinsing and UV exposure of 30 mins at time using the equipment described in Example 5. The fading of color of the sets of hair tresses, Control, Placebo and Treated was measured on the Hunter instrument, Labscan XE spectrophotometer. The total color loss (ΔE) is assessed by the change in L* a* b* scale using the equation ΔE=[(ΔL)^2+(Δa)^2+(Δb)^2]^1/2.

[14] = Viscosity boosting in SLES/CAPB shampoo formulation; format: physicochemical
Description: A typical placebo shampoo base was prepared with sodium lauryl ether sulphate (12%), cocoamidopropyl betaine (4%), EDTA disodium salt (0.1%), preservative (1%, phenoxy ethanol containing four parabens) and rest deionized water. […] All ingredients were mixed using a Silverson homogenizer thoroughly till a uniform homogeneous mixture was formed.
The base shampoo based on sodium lauryl ether sulphate (2EO) and cocoamidopropyl betaine was prepared as described in Example 4.

## COc1cc(O)c(C(=O)c2ccccc2)cc1S(=O)(=O)O [B-4, Benzophenone-4]
[1]
  amount deposited on hair (substantivity): 276 μg/g of hair

## p-methoxy cinnamidopropyl behenyl dimethyl ammonium chloride [MCBDC]
[2]
  Drop in surface tension of water: 35 dynes
[2]; at 1.0%, 30° C., reduced from 72 Mn/m
  surface tension of water: 35 Mn/m
[3]; 0 hr
  TVC C. albicans: 0.6 × 10^3 cfu/gm
[3]; 24 hr
  TVC C. albicans: <10 cfu/gm
[3]; 48 hr
  TVC C. albicans: <10 cfu/gm
[3]; 7 days
  TVC C. albicans: <10 cfu/gm
[3]; 14 days
  TVC C. albicans: <10 cfu/gm
[3]; 21 days
  TVC C. albicans: <10 cfu/gm
[3]; 28 days
  TVC C. albicans: <10 cfu/gm
[4]; 0 hr
  TVC Ps. Aeruginosa: 0.43 × 10^5 cfu/gm
[4]; 24 hr
  TVC Ps. Aeruginosa: 4.16 × 10^4 cfu/gm
[4]; 48 hr
  TVC Ps. Aeruginosa: 4.16 × 10^4 cfu/gm
[4]; 7 days
  TVC Ps. Aeruginosa: <10 cfu/gm
[4]; 14 days
  TVC Ps. Aeruginosa: <10 cfu/gm
[4]; 21 days
  TVC Ps. Aeruginosa: <10 cfu/gm
[4]; 28 days
  TVC Ps. Aeruginosa: <10 cfu/gm
[5]; 0 hr
  TVC S. aureus: 3 × 10^6 cfu/gm
[5]; 24 hr
  TVC S. aureus: <10 cfu/gm
[5]; 48 hr
  TVC S. aureus: <10 cfu/gm
[5]; 7 days
  TVC S. aureus: <10 cfu/gm
[5]; 14 days
  TVC S. aureus: <10 cfu/gm
[5]; 21 days
  TVC S. aureus: <10 cfu/gm
[5]; 28 days
  TVC S. aureus: <10 cfu/gm
[6]; 0 hr
  TVC Asp. niger: 0.78 × 10^5 cfu/gm
[6]; 24 hr
  TVC Asp. niger: 1.16 × 10^1 cfu/gm
[6]; 48 hr
  TVC Asp. niger: 2.03 × 10^2 cfu/gm
[6]; 7 days
  TVC Asp. niger: <10 cfu/gm
[6]; 14 days
  TVC Asp. niger: <10 cfu/gm
[6]; 21 days
  TVC Asp. niger: <10 cfu/gm
[6]; 28 days
  TVC Asp. niger: <10 cfu/gm
[7]; 0 hr
  TVC E. coli: 0.41 × 10^4 cfu/gm
[7]; 24 hr
  TVC E. coli: <10 cfu/gm
[7]; 48 hr
  TVC E. coli: <10 cfu/gm
[7]; 7 days
  TVC E. coli: <10 cfu/gm
[7]; 14 days
  TVC E. coli: <10 cfu/gm
[7]; 21 days
  TVC E. coli: <10 cfu/gm
[7]; 28 days
  TVC E. coli: <10 cfu/gm
[8]
  reduction in combing force, dry combing: 19.40%
  reduction in combing force, wet combing: 51.08%
[9]
  sensorial evaluation: significant enhancement of sensory attributes
[10]
  Zeta potential: +47 mV
UV absorption of MCBDC; at λ max 306 nm
  molar extinction coefficient: 28,000
UV absorption of MCBDC; λ max 306 nm in ethanol, product as such, paste with solids content 30%
  absorbance (E 1%, 1 cm): 130
[11]
  reduction in combing force after UV exposure, dry combing: about 30%
  reduction in combing force after UV exposure, wet combing: about 30%
[12]
  preservation outcome of challenge test: self preserving
[13]
  total color loss (ΔE): Lower ΔE
[14]; MCBDC 0.5% to 2.0% in base (3000 cps, salt 0.7%), Brookfield spindle No 4, 12 rpm, 25° C.
  change in viscosity of shampoo formulation: linear increase in viscosity
[14]; shampoo with 2% MCBDC, placebo shampoo 3000 cps
  viscosity of shampoo: 18,000 cps
